Test results from patent publication US8461305B2, “L-fucose α1→6 specific lectin” (J-Oil Mills, Inc., priority 2008, dated 2013).

What was measured:
[1] = frontal affinity chromatography (FAC), association constant to PA sugar chains having other L-fucose; assay type: binding; conditions: for association constant Ka: 25 degrees C.
In short: (§1)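 Lectin coupled via primary amines to NHS-activated sepharose in a miniature column, run in TBS (pH 7.4) at 0.125 ml/min and 25 degrees C. PA sugar chains (3.75 nM or 7.5 nM) applied in excess, with elution monitored by fluorescence (ex 310/em 380 nm). Ka calculated from front-end delay (V−Vo) versus PA rhamnose and effective ligand amount (Bt).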

[2] = frontal affinity chromatography (FAC), association constant to PA sugar chains without L-fucose; assay type: binding
In short: as §1

With “Lepista sordida lectin [LSL, novel lectin purified from the mushroom Lepista sordida]” the “binding to non-L-fucose α1→6 sugar chain” value ([1]; FAC) was “not detected at all”, the “association constant Ka” value ([1]; Sugar chain No. 419) was <1000 M⁻¹ and the “association constant Ka” value ([1]; Sugar chain No. 420) was <1000 M⁻¹. The “association constant Ka” value ([1]; Sugar chain No. 718) was <1000 M⁻¹, the “association constant Ka” value ([1]; Sugar chain No. 719) was <1000 M⁻¹ and the “association constant Ka” value ([1]; Sugar chain No. 720) was <1000 M⁻¹. For the same substance, the “association constant Ka” value ([1]; Sugar chain No. 721) was <1000 M⁻¹, the “association constant Ka” value ([1]; Sugar chain No. 722) was <1000 M⁻¹ and the “association constant Ka” value ([1]; Sugar chain No. 723) was <1000 M⁻¹. The “association constant Ka” value ([1]; Sugar chain No. 726) was <1000 M⁻¹, the “association constant Ka” value ([1]; Sugar chain No. 727) was <1000 M⁻¹ and the “association constant Ka” value ([1]; Sugar chain No. 728 (as listed in Table 5/12)) was <1000 M⁻¹. For the same substance, the “association constant Ka” value ([1]; Sugar chain No. 729) was <1000 M⁻¹, the “association constant Ka” value ([1]; Sugar chain No. 730) was <1000 M⁻¹ and the “association constant Ka” value ([1]; Sugar chain No. 731) was <1000 M⁻¹. The “association constant Ka” value ([1]; Sugar chain No. 739) was <1000 M⁻¹, the “association constant Ka” value ([1]; Sugar chain No. 909) was <1000 M⁻¹ and the “association constant Ka” value ([1]; Sugar chain No. 910) was <1000 M⁻¹. For the same substance, the “association constant Ka” value ([1]; Sugar chain No. 931) was <1000 M⁻¹, the “association constant Ka” value ([1]; Sugar chain No. 932) was <1000 M⁻¹ and the “association constant Ka” value ([1]; Sugar chain No. 933) was <1000 M⁻¹. The “binding to sugar chain not having L-fucose” value ([2]; FAC) was “not detected at all”, the “association constant Ka” value ([2]; Sugar chain No. 001, sugar chain not having L-fucose) was <1000 M⁻¹ and the “association constant Ka” value ([2]; Sugar chain No. 002, sugar chain not having L-fucose) was <1000 M⁻¹. The “association constant Ka” value ([2]; Sugar chain No. 003, sugar chain not having L-fucose) was <1000 M⁻¹, the “association constant Ka” value ([2]; Sugar chain No. 004, sugar chain not having L-fucose) was <1000 M⁻¹ and the “association constant Ka” value ([2]; Sugar chain No. 005, sugar chain not having L-fucose) was <1000 M⁻¹. The “association constant Ka” value ([2]; Sugar chain No. 006, sugar chain not having L-fucose) was <1000 M⁻¹, the “association constant Ka” value ([2]; Sugar chain No. 007, sugar chain not having L-fucose) was <1000 M⁻¹ and the “association constant Ka” value ([2]; Sugar chain No. 008, sugar chain not having L-fucose) was <1000 M⁻¹. For the same substance, the “association constant Ka” value ([2]; Sugar chain No. 009, sugar chain not having L-fucose) was <1000 M⁻¹, the “association constant Ka” value ([2]; Sugar chain No. 010, sugar chain not having L-fucose) was <1000 M⁻¹ and the “association constant Ka” value ([2]; Sugar chain No. 011, sugar chain not having L-fucose) was <1000 M⁻¹. For the same substance, the “association constant Ka” value ([2]; Sugar chain No. 012, sugar chain not having L-fucose) was <1000 M⁻¹, the “association constant Ka” value ([2]; Sugar chain No. 013, sugar chain not having L-fucose) was <1000 M⁻¹ and the “association constant Ka” value ([2]; Sugar chain No. 014, sugar chain not having L-fucose) was <1000 M⁻¹. The “association constant Ka” value ([2]; Sugar chain No. 101, sugar chain not having L-fucose) was <1000 M⁻¹, the “association constant Ka” value ([2]; Sugar chain No. 103, sugar chain not having L-fucose) was <1000 M⁻¹ and the “association constant Ka” value ([2]; Sugar chain No. 104, sugar chain not having L-fucose) was <1000 M⁻¹. The “association constant Ka” value ([2]; Sugar chain No. 105, sugar chain not having L-fucose) was <1000 M⁻¹, the “association constant Ka” value ([2]; Sugar chain No. 107, sugar chain not having L-fucose) was <1000 M⁻¹ and the “association constant Ka” value ([2]; Sugar chain No. 108, sugar chain not having L-fucose) was <1000 M⁻¹. For the same substance, the “association constant Ka” value ([2]; Sugar chain No. 301, sugar chain not having L-fucose) was <1000 M⁻¹, the “association constant Ka” value ([2]; Sugar chain No. 304, sugar chain not having L-fucose) was <1000 M⁻¹ and the “association constant Ka” value ([2]; Sugar chain No. 305, sugar chain not having L-fucose) was <1000 M⁻¹. The “association constant Ka” value ([2]; Sugar chain No. 307, sugar chain not having L-fucose) was <1000 M⁻¹, the “association constant Ka” value ([2]; Sugar chain No. 308, sugar chain not having L-fucose) was <1000 M⁻¹ and the “association constant Ka” value ([2]; Sugar chain No. 313, sugar chain not having L-fucose) was <1000 M⁻¹. The “association constant Ka” value ([2]; Sugar chain No. 314, sugar chain not having L-fucose) was <1000 M⁻¹, the “association constant Ka” value ([2]; Sugar chain No. 323, sugar chain not having L-fucose) was <1000 M⁻¹ and the “association constant Ka” value ([2]; Sugar chain No. 501, sugar chain not having L-fucose) was <1000 M⁻¹. For the same substance, the “association constant Ka” value ([2]; Sugar chain No. 502, sugar chain not having L-fucose) was <1000 M⁻¹, the “association constant Ka” value ([2]; Sugar chain No. 503, sugar chain not having L-fucose) was <1000 M⁻¹ and the “association constant Ka” value ([2]; Sugar chain No. 504, sugar chain not having L-fucose) was <1000 M⁻¹. For the same substance, the “association constant Ka” value ([2]; Sugar chain No. 701, sugar chain not having L-fucose) was <1000 M⁻¹, the “association constant Ka” value ([2]; Sugar chain No. 702, sugar chain not having L-fucose) was <1000 M⁻¹ and the “association constant Ka” value ([2]; Sugar chain No. 703, sugar chain not having L-fucose) was <1000 M⁻¹. For the same substance, the “association constant Ka” value ([2]; Sugar chain No. 704, sugar chain not having L-fucose) was <1000 M⁻¹, the “association constant Ka” value ([2]; Sugar chain No. 705, sugar chain not having L-fucose) was <1000 M⁻¹ and the “association constant Ka” value ([2]; Sugar chain No. 706, sugar chain not having L-fucose) was <1000 M⁻¹. The “association constant Ka” value ([2]; Sugar chain No. 707, sugar chain not having L-fucose) was <1000 M⁻¹, the “association constant Ka” value ([2]; Sugar chain No. 708, sugar chain not having L-fucose) was <1000 M⁻¹ and the “association constant Ka” value ([2]; Sugar chain No. 709, sugar chain not having L-fucose) was <1000 M⁻¹. For the same substance, the “association constant Ka” value ([2]; Sugar chain No. 710, sugar chain not having L-fucose) was <1000 M⁻¹, the “association constant Ka” value ([2]; Sugar chain No. 711, sugar chain not having L-fucose) was <1000 M⁻¹ and the “association constant Ka” value ([2]; Sugar chain No. 712, sugar chain not having L-fucose) was <1000 M⁻¹. The “association constant Ka” value ([2]; Sugar chain No. 713, sugar chain not having L-fucose) was <1000 M⁻¹, the “association constant Ka” value ([2]; Sugar chain No. 715, sugar chain not having L-fucose) was <1000 M⁻¹ and the “association constant Ka” value ([2]; Sugar chain No. 716, sugar chain not having L-fucose) was <1000 M⁻¹. For the same substance, the “association constant Ka” value ([2]; Sugar chain No. 717, sugar chain not having L-fucose) was <1000 M⁻¹, the “association constant Ka” value ([2]; Sugar chain No. 724, sugar chain not having L-fucose) was <1000 M⁻¹ and the “association constant Ka” value ([2]; Sugar chain No. 725, sugar chain not having L-fucose) was <1000 M⁻¹. The “association constant Ka” value ([2]; Sugar chain No. 728, sugar chain not having L-fucose) was <1000 M⁻¹, the “association constant Ka” value ([2]; Sugar chain No. 732, sugar chain not having L-fucose) was <1000 M⁻¹ and the “association constant Ka” value ([2]; Sugar chain No. 733, sugar chain not having L-fucose) was <1000 M⁻¹. The “association constant Ka” value ([2]; Sugar chain No. 734, sugar chain not having L-fucose) was <1000 M⁻¹, the “association constant Ka” value ([2]; Sugar chain No. 735, sugar chain not having L-fucose) was <1000 M⁻¹ and the “association constant Ka” value ([2]; Sugar chain No. 736, sugar chain not having L-fucose) was <1000 M⁻¹. For the same substance, the “association constant Ka” value ([2]; Sugar chain No. 737, sugar chain not having L-fucose) was <1000 M⁻¹, the “association constant Ka” value ([2]; Sugar chain No. 738, sugar chain not having L-fucose) was <1000 M⁻¹ and the “association constant Ka” value ([2]; Sugar chain No. 901, sugar chain not having L-fucose) was <1000 M⁻¹. For the same substance, the “association constant Ka” value ([2]; Sugar chain No. 902, sugar chain not having L-fucose) was <1000 M⁻¹, the “association constant Ka” value ([2]; Sugar chain No. 903, sugar chain not having L-fucose) was <1000 M⁻¹ and the “association constant Ka” value ([2]; Sugar chain No. 905, sugar chain not having L-fucose) was <1000 M⁻¹. For the same substance, the “association constant Ka” value ([2]; Sugar chain No. 907, sugar chain not having L-fucose) was <1000 M⁻¹.
